Reference: ChEMBL document CHEMBL3400081, “Exploration of benzamidochromenone derivatives with conformational restrictor as interleukin-5 inhibitors” (Bioorg Med Chem, 2015)

Target: T1, Interleukin-5 (Mus musculus) (UniProt P04401)
T1 sequence (whole entry): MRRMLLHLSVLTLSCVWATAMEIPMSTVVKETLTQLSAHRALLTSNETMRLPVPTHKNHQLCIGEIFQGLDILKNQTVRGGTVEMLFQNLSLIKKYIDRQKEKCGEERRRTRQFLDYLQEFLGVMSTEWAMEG
Assay: Inhibition of mouse IL5-mediated mouse Y16 cell proliferation at 30 uM after 48 hrs by WST1 assay

SMILES | inhibition [%]
CC(=O)OCc1c(C2CCCCC2)oc2ccc(NS(=O)(=O)c3ccccc3)cc2c1=O | 5
CC(=O)OCc1c(C2CCCCC2)oc2ccc(NC(=O)c3ccccc3)cc2c1=O | 95
O=C(Nc1ccc2oc(C3CCCCC3)c(CO)c(=O)c2c1)C1CCCCC1 | 9
CC(=O)OCc1c(C2CCCCC2)oc2ccc(NC(=O)Nc3ccccc3)cc2c1=O | 25
CC(C)(C)C(=O)OCc1c(C2CCCCC2)oc2ccc(NC(=O)c3ccccc3)cc2c1=O | 5
CC(=O)OCc1c(C2CCCCC2)oc2ccc(NC(=O)C3CCCCC3)cc2c1=O | 80
O=C(Nc1ccc2oc(C3CCCCC3)c(CO)c(=O)c2c1)c1ccccc1 | 90
CC(=O)OCc1c(C2CCCCC2)oc2ccc(NCc3ccccc3)cc2c1=O | 78
CC(=O)OCc1c(-c2ccccc2)oc2ccc(NC(=O)C3CCCCC3)cc2c1=O | 75
CC(C)C(=O)OCc1c(C2CCCCC2)oc2ccc(NC(=O)c3ccccc3)cc2c1=O | 71

Further lines, results first:

inhibition [%] | SMILES
19 | O=C(Nc1ccc2oc(-c3ccc(F)cc3)c(CO)c(=O)c2c1)c1ccccc1
71 | O=C(Nc1ccc2oc(-c3ccccc3)c(CO)c(=O)c2c1)c1ccccc1
15 | CC(=O)OCc1c(-c2ccccc2)oc2ccc(NC(=O)c3cnccn3)cc2c1=O
23 | O=C(Nc1ccc2oc(-c3ccccc3)c(CO)c(=O)c2c1)c1cnccn1
12 | CC(=O)OCc1c(-c2ccc(F)cc2)oc2ccc(NC(=O)c3ccccc3)cc2c1=O
79 | CC(=O)OCc1c(-c2ccccc2)oc2ccc(NC(=O)c3ccccc3)cc2c1=O
35 | O=C(Nc1ccc2oc(-c3ccccc3)c(CO)c(=O)c2c1)C1CCCCC1
